{"source": "paper PMC9346598", "about": "(The Journal of Poultry Science, 2022)", "key": {"[1]": {"target": "T1, chicken GPR120 (cGPR120) (Gallus gallus, UniProt A0A8V0ZCZ6)", "T1 sequence (A0A8V0ZCZ6 1-362)": "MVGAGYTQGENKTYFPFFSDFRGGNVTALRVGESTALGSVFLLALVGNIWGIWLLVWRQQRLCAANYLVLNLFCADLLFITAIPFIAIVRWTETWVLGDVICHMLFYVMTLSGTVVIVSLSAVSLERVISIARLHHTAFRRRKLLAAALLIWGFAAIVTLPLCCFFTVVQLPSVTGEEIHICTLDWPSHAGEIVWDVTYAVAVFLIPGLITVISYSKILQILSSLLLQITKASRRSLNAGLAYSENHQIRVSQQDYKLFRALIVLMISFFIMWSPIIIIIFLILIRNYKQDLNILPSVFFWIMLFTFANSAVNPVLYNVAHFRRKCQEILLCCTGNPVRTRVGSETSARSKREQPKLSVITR", "assay": "Fura-2 Ca2+ imaging in transfected HEK293T cells, Hill fit", "format": "cell-based"}, "[2]": {"target": "T1, chicken GPR120 (cGPR120)", "assay": "Fura-2 Ca2+ imaging in transfected HEK293T cells, Hill fit", "format": "cell-based", "conditions": "agonist, pH 7.4, about 37 C"}}}
{"smiles": "CCCCC/C=C\\C/C=C\\C/C=C\\C/C=C\\CCCC(=O)O", "note": "[AA, arachidonic acid]", "values": [{"measurement": "EC50", "setting": "[1]", "result": 1.04, "unit": "mM"}]}
{"smiles": "CC/C=C\\C/C=C\\C/C=C\\C/C=C\\C/C=C\\C/C=C\\CCC(=O)O", "note": "[DHA, docosahexaenoic acid]", "values": [{"measurement": "Fura-2 Ca2+ imaging in transfected HEK293T cells, Hill fit", "setting": "[2]; 0.1-3 mmol/L in well, stock in ethanol", "result": "EPA and DHA activated cGPR120 in a dose-dependent manner"}]}
{"smiles": "CC/C=C\\C/C=C\\C/C=C\\C/C=C\\C/C=C\\CCCC(=O)O", "note": "[EPA, eicosapentaenoic acid]", "values": [{"measurement": "Fura-2 Ca2+ imaging in transfected HEK293T cells, Hill fit", "setting": "[2]; 0.1-7 mmol/L in well, stock in ethanol", "result": "EPA and DHA activated cGPR120 in a dose-dependent manner"}]}
{"smiles": "CCCCC/C=C\\C/C=C\\CCCCCCCC(=O)O", "note": "[LA, linoleic acid]", "values": [{"measurement": "Fura-2 Ca2+ imaging in transfected HEK293T cells, Hill fit", "setting": "[2]; 1-10 mmol/L in well, stock in DMSO", "result": "cGPR120 cells were activated in a dose-dependent manner by LA"}]}
